Reference: patent US20230085307A1, “PYRIDAZINONE COMPOUND AND HERBICIDE” (NISSAN CHEMICAL CORPORATION, priority 2019, published 2023)

Legend:
green foxtail [1] = experiment: Test Example 4: herbicidal effect by soil treatment (Table 19, symbol G); assay type: in vivo, green foxtail (Setaria viridis)
In short: (§1)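 Step 1: sow seeds in sterilized diluvial soil, cover ~1.5 cm. Step 2: spray diluted emulsion onto soil surface at predetermined rate. Step 3: greenhouse, 25–30° C, three weeks. Step 4: grade effect on each plant by earlier criteria.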

barnyard grass [2] = experiment: Test Example 3: herbicidal effect by foliage application, Wagner pot (Table 18, symbol H); assay type: in vivo, barnyard grass (Echinochloa crus-galli)
In short: (§2)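 Plants were sown in alluvial soil held under 0.1–0.5 cm standing water and grown 14 days in a greenhouse at 25–30 °C. An emulsifiable formulation, water-diluted to the set dose, was then sprayed onto the foliage, and effects were scored three weeks later using previously defined criteria.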

Japanese bulrush = experiment: Test Example 1: herbicidal activity, application before weed generation under submerged conditions (Table 16, symbol B); assay type: in vivo, Japanese bulrush (Schoenoplectus juncoides)
In short: (§3)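 Emulsion formulation, water-diluted to set dose, was put onto the flooded surface (4 cm depth, alluvial soil) the same day weeds were sown and 2.5-leaf rice transplanted. After 3 weeks at 25-30 °C under glass, each species was rated 0 (≤5% kill) to 5 (≥90% kill).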

oval-leafed pondweed = experiment: Test Example 1: herbicidal activity, application before weed generation under submerged conditions (Table 16, symbol C); assay type: in vivo, oval-leafed pondweed (Monochoria vaginalis)
In short: as §3

velvetleaf [3] = experiment: Test Example 4: herbicidal effect by soil treatment (Table 19, symbol M); assay type: in vivo, velvetleaf (Abutilon theophrasti)
In short: as §1

lambsquarters [4] = experiment: Test Example 5: herbicidal effect by foliage application, plastic box (Table 20, symbol O); assay type: in vivo, lambsquarters (Chenopodium album); details: foliage application, evaluated three weeks after application
In short: (§4)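 Foliar spray test: emulsion formulation diluted in water to a set application rate, sprayed onto 14-day-old plants raised in diluvial soil at 25° C to 30° C under glass. Both herbicidal effect and crop effect rated visually three weeks later.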

wild oat [5] = experiment: Test Example 5: herbicidal effect by foliage application, plastic box (Table 20, symbol I); assay type: in vivo, wild oat (Avena fatua); details: foliage application, evaluated three weeks after application
In short: as §4

blackgrass [6] = experiment: Test Example 5: herbicidal effect by foliage application, plastic box (Table 20, symbol J); assay type: in vivo, blackgrass (Alopecurus myosuroides); details: foliage application, evaluated three weeks after application
In short: as §4

southern crabgrass [7] = experiment: Test Example 5: herbicidal effect by foliage application, plastic box (Table 20, symbol F); assay type: in vivo, southern crabgrass (Digitaria ciliaris); details: foliage application, evaluated three weeks after application
In short: as §4

Italian ryegrass [8] = experiment: Test Example 5: herbicidal effect by foliage application, plastic box (Table 20, symbol K); assay type: in vivo, Italian ryegrass (Lolium multiflorum); details: foliage application, evaluated three weeks after application
In short: as §4

chickweed [9] = experiment: Test Example 4: herbicidal effect by soil treatment (Table 19, symbol P); assay type: in vivo, common chickweed (Stellaria media)
In short: as §1

velvetleaf [10] = experiment: Test Example 5: herbicidal effect by foliage application, plastic box (Table 20, symbol M); assay type: in vivo, velvetleaf (Abutilon theophrasti); details: foliage application, evaluated three weeks after application
In short: as §4

late watergrass = experiment: Test Example 1: herbicidal activity, application before weed generation under submerged conditions (Table 16, symbol A); assay type: in vivo, late watergrass (Echinochloa oryzicola)
In short: as §3

wild oat [11] = experiment: Test Example 4: herbicidal effect by soil treatment (Table 19, symbol I); assay type: in vivo, wild oat (Avena fatua)
In short: as §1

chickweed [12] = experiment: Test Example 5: herbicidal effect by foliage application, plastic box (Table 20, symbol P); assay type: in vivo, common chickweed (Stellaria media); details: foliage application, evaluated three weeks after application
In short: as §4

persian speedwell [13] = experiment: Test Example 5: herbicidal effect by foliage application, plastic box (Table 20, symbol R); assay type: in vivo, Persian speedwell (Veronica persica); details: foliage application, evaluated three weeks after application
In short: as §4

windgrass [14] = experiment: Test Example 4: herbicidal effect by soil treatment (Table 19, symbol L); assay type: in vivo, windgrass (Apera spica-venti)
In short: as §1

barnyard grass [15] = experiment: Test Example 4: herbicidal effect by soil treatment (Table 19, symbol H); assay type: in vivo, barnyard grass (Echinochloa crus-galli)
In short: as §1

persian speedwell [16] = experiment: Test Example 4: herbicidal effect by soil treatment (Table 19, symbol R); assay type: in vivo, Persian speedwell (Veronica persica)
In short: as §1

blackgrass [17] = experiment: Test Example 4: herbicidal effect by soil treatment (Table 19, symbol J); assay type: in vivo, blackgrass (Alopecurus myosuroides)
In short: as §1

Chinese sprangletop = experiment: Test Example 3: herbicidal effect by foliage application, Wagner pot (Table 18, symbol D); assay type: in vivo, chinese sprangletop (Leptochloa chinensis)
In short: as §2

green foxtail [18] = experiment: Test Example 5: herbicidal effect by foliage application, plastic box (Table 20, symbol G); assay type: in vivo, green foxtail (Setaria viridis); details: foliage application, evaluated three weeks after application
In short: as §4

southern crabgrass [19] = experiment: Test Example 4: herbicidal effect by soil treatment (Table 19, symbol F); assay type: in vivo, southern crabgrass (Digitaria ciliaris)
In short: as §1

Italian ryegrass [20] = experiment: Test Example 4: herbicidal effect by soil treatment (Table 19, symbol K); assay type: in vivo, Italian ryegrass (Lolium multiflorum)
In short: as §1

windgrass [21] = experiment: Test Example 5: herbicidal effect by foliage application, plastic box (Table 20, symbol L); assay type: in vivo, windgrass (Apera spica-venti); details: foliage application, 176 g/ha, evaluated three weeks after application
In short: as §4

redroot pigweed [22] = experiment: Test Example 5: herbicidal effect by foliage application, plastic box (Table 20, symbol N); assay type: in vivo, redroot pigweed (Amaranthus retroflexus); details: foliage application, evaluated three weeks after application
In short: as §4

rice flat sedge = experiment: Test Example 3: herbicidal effect by foliage application, Wagner pot (Table 18, symbol E); assay type: in vivo, rice flat sedge (Cyperus iria)
In short: as §2

barnyard grass [23] = experiment: Test Example 5: herbicidal effect by foliage application, plastic box (Table 20, symbol H); assay type: in vivo, barnyard grass (Echinochloa crus-galli); details: foliage application, evaluated three weeks after application
In short: as §4

lambsquarters [24] = experiment: Test Example 4: herbicidal effect by soil treatment (Table 19, symbol O); assay type: in vivo, lambsquarters (Chenopodium album)
In short: as §1

redroot pigweed [25] = experiment: Test Example 4: herbicidal effect by soil treatment (Table 19, symbol N); assay type: in vivo, redroot pigweed (Amaranthus retroflexus); details: amount of applied herbicide 320 g/ha
In short: as §1

[26] = amount of applied herbicide 176 g/ha
[27] = amount of applied herbicide 320 g/ha

SMILES: COc1ccccc1-c1sc2ccc(C)cc2c1-c1c(O)c(C)nn(C)c1=O [2-138]
- G: green foxtail, herbicidal effect rating (green foxtail [1]; [26]): 4 (Herbicidal rate of 70% or more and less than 90%)
- herbicidal effect on H: barnyard grass (barnyard grass [2]; [26]): 5 (Herbicidal rate of 90% or more (almost completely withered))
- Herbicidal effect on B: Japanese bulrush (grade 0-5) (Japanese bulrush; 176 g/ha applied herbicide): 0 (Herbicidal rate of 5% or less (almost no effect))
- Herbicidal effect on C: oval-leafed pondweed (grade 0-5) (oval-leafed pondweed; 176 g/ha applied herbicide): 0 (Herbicidal rate of 5% or less (almost no effect))
- M: velvetleaf, herbicidal effect rating (velvetleaf [3]; [26]): 0 (Herbicidal rate of 5% or less (almost no effect))
- herbicidal effect on O: lambsquarters (lambsquarters [4]; 176 g/ha): 4 (Herbicidal rate of 70% or more and less than 90%)
- herbicidal effect on I: wild oat (wild oat [5]; 176 g/ha): 0 (Herbicidal rate of 5% or less (almost no effect))
- herbicidal effect on J: blackgrass (blackgrass [6]; 176 g/ha): 3 (Herbicidal rate of 40% or more and less than 70%)
- herbicidal effect on F: southern crabgrass (southern crabgrass [7]; 176 g/ha): 3 (Herbicidal rate of 40% or more and less than 70%)
- herbicidal effect on K: Italian ryegrass (Italian ryegrass [8]; 176 g/ha): 3 (Herbicidal rate of 40% or more and less than 70%)
- P: chickweed, herbicidal effect rating (chickweed [9]; [26]): 0 (Herbicidal rate of 5% or less (almost no effect))
- herbicidal effect on M: velvetleaf (velvetleaf [10]; 176 g/ha): 5 (Herbicidal rate of 90% or more (almost completely withered))
- Herbicidal effect on A: late watergrass (grade 0-5) (late watergrass; 176 g/ha applied herbicide): 5 (Herbicidal rate of 90% or more (almost completely withered))
- I: wild oat, herbicidal effect rating (wild oat [11]; [26]): 0 (Herbicidal rate of 5% or less (almost no effect))
- herbicidal effect on P: chickweed (chickweed [12]; 176 g/ha): 5 (Herbicidal rate of 90% or more (almost completely withered))
- herbicidal effect on R: persian speedwell (persian speedwell [13]; 176 g/ha): 5 (Herbicidal rate of 90% or more (almost completely withered))
- L: windgrass, herbicidal effect rating (windgrass [14]; [26]): 0 (Herbicidal rate of 5% or less (almost no effect))
- H: barnyard grass, herbicidal effect rating (barnyard grass [15]; [26]): 3 (Herbicidal rate of 40% or more and less than 70%)
- R: persian speedwell, herbicidal effect rating (persian speedwell [16]; [26]): 0 (Herbicidal rate of 5% or less (almost no effect))
- J: blackgrass, herbicidal effect rating (blackgrass [17]; [26]): 3 (Herbicidal rate of 40% or more and less than 70%)
- herbicidal effect on D: Chinese sprangletop (Chinese sprangletop; [26]): 1 (Herbicidal rate of 5% or more and less than 20%)
- herbicidal effect on G: green foxtail (green foxtail [18]; 176 g/ha): 4 (Herbicidal rate of 70% or more and less than 90%)
- F: southern crabgrass, herbicidal effect rating (southern crabgrass [19]; [26]): 0 (Herbicidal rate of 5% or less (almost no effect))
- K: Italian ryegrass, herbicidal effect rating (Italian ryegrass [20]; [26]): 0 (Herbicidal rate of 5% or less (almost no effect))
- herbicidal effect on L: windgrass (windgrass [21]): 4 (Herbicidal rate of 70% or more and less than 90%)
- herbicidal effect on N: redroot pigweed (redroot pigweed [22]; 176 g/ha): 0 (Herbicidal rate of 5% or less (almost no effect))
- herbicidal effect on E: rice flat sedge (rice flat sedge; [26]): 4 (Herbicidal rate of 70% or more and less than 90%)
- herbicidal effect on H: barnyard grass (barnyard grass [23]; 176 g/ha): 4 (Herbicidal rate of 70% or more and less than 90%)
- O: lambsquarters, herbicidal effect rating (lambsquarters [24]; [26]): 5 (Herbicidal rate of 90% or more (almost completely withered))

SMILES: Cc1nn(C)c(=O)c(-c2c(-c3ccc(C(C)(C)C)cc3)sc3ccc(F)cc23)c1O [2-208]
- G: green foxtail, herbicidal effect rating (green foxtail [1]; [27]): 0 (Herbicidal rate of 5% or less (almost no effect))
- herbicidal effect on H: barnyard grass (barnyard grass [2]; [27]): 5 (Herbicidal rate of 90% or more (almost completely withered))
- Herbicidal effect on B: Japanese bulrush (grade 0-5) (Japanese bulrush; 320 g/ha applied herbicide): 2 (Herbicidal rate of 20% or more and less than 40%)
- Herbicidal effect on C: oval-leafed pondweed (grade 0-5) (oval-leafed pondweed; 320 g/ha applied herbicide): 0 (Herbicidal rate of 5% or less (almost no effect))
- M: velvetleaf, herbicidal effect rating (velvetleaf [3]; [27]): 1 (Herbicidal rate of 5% or more and less than 20%)
- herbicidal effect on O: lambsquarters (criteria 0-5) (lambsquarters [4]; 320 g/ha): 0 (Herbicidal rate of 5% or less (almost no effect))
- herbicidal effect on I: wild oat (criteria 0-5) (wild oat [5]; 320 g/ha): 0 (Herbicidal rate of 5% or less (almost no effect))
- herbicidal effect on J: blackgrass (criteria 0-5) (blackgrass [6]; 320 g/ha): 0 (Herbicidal rate of 5% or less (almost no effect))
- herbicidal effect on F: southern crabgrass (criteria 0-5) (southern crabgrass [7]; 320 g/ha): 3 (Herbicidal rate of 40% or more and less than 70%)
- herbicidal effect on K: Italian ryegrass (criteria 0-5) (Italian ryegrass [8]; 320 g/ha): 0 (Herbicidal rate of 5% or less (almost no effect))
- P: chickweed, herbicidal effect rating (chickweed [9]; [27]): 0 (Herbicidal rate of 5% or less (almost no effect))
- herbicidal effect on M: velvetleaf (criteria 0-5) (velvetleaf [10]; 320 g/ha): 2 (Herbicidal rate of 20% or more and less than 40%)
- Herbicidal effect on A: late watergrass (grade 0-5) (late watergrass; 320 g/ha applied herbicide): 0 (Herbicidal rate of 5% or less (almost no effect))
- I: wild oat, herbicidal effect rating (wild oat [11]; [27]): 0 (Herbicidal rate of 5% or less (almost no effect))
- herbicidal effect on P: chickweed (criteria 0-5) (chickweed [12]; 320 g/ha): 5 (Herbicidal rate of 90% or more (almost completely withered))
- herbicidal effect on R: persian speedwell (criteria 0-5) (persian speedwell [13]; 320 g/ha): 5 (Herbicidal rate of 90% or more (almost completely withered))
- L: windgrass, herbicidal effect rating (windgrass [14]; [27]): 0 (Herbicidal rate of 5% or less (almost no effect))
- H: barnyard grass, herbicidal effect rating (barnyard grass [15]; [27]): 0 (Herbicidal rate of 5% or less (almost no effect))
- N: redroot pigweed, herbicidal effect rating (redroot pigweed [25]): 0 (Herbicidal rate of 5% or less (almost no effect))
- R: persian speedwell, herbicidal effect rating (persian speedwell [16]; [27]): 0 (Herbicidal rate of 5% or less (almost no effect))
- J: blackgrass, herbicidal effect rating (blackgrass [17]; [27]): 0 (Herbicidal rate of 5% or less (almost no effect))
- herbicidal effect on D: Chinese sprangletop (Chinese sprangletop; [27]): 5 (Herbicidal rate of 90% or more (almost completely withered))
- herbicidal effect on G: green foxtail (criteria 0-5) (green foxtail [18]; 320 g/ha): 2 (Herbicidal rate of 20% or more and less than 40%)
- F: southern crabgrass, herbicidal effect rating (southern crabgrass [19]; [27]): 3 (Herbicidal rate of 40% or more and less than 70%)
- K: Italian ryegrass, herbicidal effect rating (Italian ryegrass [20]; [27]): 0 (Herbicidal rate of 5% or less (almost no effect))
- herbicidal effect on N: redroot pigweed (criteria 0-5) (redroot pigweed [22]; 320 g/ha): 3 (Herbicidal rate of 40% or more and less than 70%)
- herbicidal effect on E: rice flat sedge (rice flat sedge; [27]): 5 (Herbicidal rate of 90% or more (almost completely withered))
- herbicidal effect on H: barnyard grass (criteria 0-5) (barnyard grass [23]; 320 g/ha): 5 (Herbicidal rate of 90% or more (almost completely withered))
- O: lambsquarters, herbicidal effect rating (lambsquarters [24]; [27]): 2 (Herbicidal rate of 20% or more and less than 40%)
